# From patent US20020051978A1, “Methods and compositions for the identification, assessment, prevention and therapy of human cancers” (priority 2000, published 2002)
# Where two headings read alike, the source gives them in different places.
# Columns and labels:
# [1] = test system: 60 cancer cell lines (NCI 60 cancer cell line series); experiment: NCI-DTP in vitro cancer screen, sulforhodamine B (SRB) growth inhibition, 48 hour exposure; format: cell-based, human; parameters: key to sensitivity class Ovarian OVCAR-8 CL6005 / sensitivity class Ovarian SK-OV-3 CL6011 / sensitivity class Prostate DU-145 CL11003 / sensitivity class NSCLC NCI-H522 CL1003 / sensitivity class Ovarian IGROV1 CL6010 / sensitivity class Ovarian OVCAR-4 CL6002 / sensitivity class Prostate PC-3(I) CL11001 / sensitivity class Renal A498 CL9013 / sensitivity class Renal SN12C CL9008: sensitivity class: 1 = Low, 2 = Medium, 3 = High
# Outline: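 Sixty NCI-DTP cancer lines plated at line-specific densities, dosed on day 1 in duplicate with 5 concentrations at ten-fold intervals. After 48 h exposure, cell mass read by SRB staining; GI50 (50% growth inhibition) taken from dose-response curves and expressed as -log GI50.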
# [2] = test system: 60 cancer cell lines (NCI 60 cancer cell line series); details: cited from earlier work
smiles,measurement,setting,value
COc1cc([C@@H]2c3cc4c(cc3[C@@H](O[C@@H]3O[C@@H]5CO[C@@H](C)O[C@H]5[C@H](O)[C@H]3O)[C@H]3COC(=O)[C@H]23)OCO4)cc(OC)c1O [Etoposide],"classification of cell line as Low(1), Medium(2) or High(3) sensitivity to compound",[1]; Breast BT-549 (CL5013),2
same,"classification of cell line as Low(1), Medium(2) or High(3) sensitivity to compound",[1]; Breast HS-578T CL5006,3
same,"classification of cell line as Low(1), Medium(2) or High(3) sensitivity to compound",[1]; Breast MCF7(I) (CL5001),2
same,"classification of cell line as Low(1), Medium(2) or High(3) sensitivity to compound",[1]; Breast MCF7/ADRr (CL5002),1
same,"classification of cell line as Low(1), Medium(2) or High(3) sensitivity to compound",[1]; Breast MDA-MB-231 CL5005,2
same,"classification of cell line as Low(1), Medium(2) or High(3) sensitivity to compound",[1]; Breast MDA-MB-435 (CL5011),2
same,"classification of cell line as Low(1), Medium(2) or High(3) sensitivity to compound",[1]; Breast MDA-N CL5012,3
same,"classification of cell line as Low(1), Medium(2) or High(3) sensitivity to compound",[1]; Breast T-47D (CL5014),3
same,"classification of cell line as Low(1), Medium(2) or High(3) sensitivity to compound",[1]; CNS SF-268 CL12014,2
same,"classification of cell line as Low(1), Medium(2) or High(3) sensitivity to compound",[1]; CNS SF-295 CL12015,2
same,"classification of cell line as Low(1), Medium(2) or High(3) sensitivity to compound",[1]; CNS SF-539 CL12016,2
same,"classification of cell line as Low(1), Medium(2) or High(3) sensitivity to compound",[1]; CNS SNB-19 (CL12002),2
same,"classification of cell line as Low(1), Medium(2) or High(3) sensitivity to compound",[1]; CNS SNB-75(I) CL12005,2
same,"classification of cell line as Low(1), Medium(2) or High(3) sensitivity to compound",[1]; CNS U251(I) CL12009,2
same,"classification of cell line as Low(1), Medium(2) or High(3) sensitivity to compound",[1]; Colon COLO-250 CL4010,1
same,"classification of cell line as Low(1), Medium(2) or High(3) sensitivity to compound",[1]; Colon HCC-2998 (CL4002),2
same,"classification of cell line as Low(1), Medium(2) or High(3) sensitivity to compound",[1]; Colon HCT-15 CL4015,2
same,"classification of cell line as Low(1), Medium(2) or High(3) sensitivity to compound",[1]; Colon HCT-116 (CL4003),2
same,"classification of cell line as Low(1), Medium(2) or High(3) sensitivity to compound",[1]; Colon HT29(I) CL4001,1
same,"classification of cell line as Low(1), Medium(2) or High(3) sensitivity to compound",[1]; Colon KM12 (CL4017),2
same,"classification of cell line as Low(1), Medium(2) or High(3) sensitivity to compound",[1]; Colon SW-620 (CL4009),2
same,"classification of cell line as Low(1), Medium(2) or High(3) sensitivity to compound",[1]; Leukemia CCRF-CEM(I) (CL7003),2
same,"classification of cell line as Low(1), Medium(2) or High(3) sensitivity to compound",[1]; Leukemia HL-60(I) (CL7008),2
same,"classification of cell line as Low(1), Medium(2) or High(3) sensitivity to compound",[1]; Leukemia K562(I) CL7005,2
same,"classification of cell line as Low(1), Medium(2) or High(3) sensitivity to compound",[1]; Leukemia MOLT-4 (CL7006),3
same,"classification of cell line as Low(1), Medium(2) or High(3) sensitivity to compound",[1]; Leukemia RPMI-8226(I) (CL7010),2
same,"classification of cell line as Low(1), Medium(2) or High(3) sensitivity to compound",[1]; Leukemia SR CL7019,3
same,"classification of cell line as Low(1), Medium(2) or High(3) sensitivity to compound",[1]; Melanoma LOX IMVI CL10001,2
same,"classification of cell line as Low(1), Medium(2) or High(3) sensitivity to compound",[1]; Melanoma M14 (CL10014),3
same,"classification of cell line as Low(1), Medium(2) or High(3) sensitivity to compound",[1]; Melanoma MALME-3M CL10002,2
same,sensitivity class NSCLC NCI-H23(I) CL1001,"[1]; cell line NSCLC NCI-H23(I), CL1001",2
same,sensitivity class NSCLC NCI-H332M CL1017,"[1]; cell line NSCLC NCI-H332M, CL1017",1
same,sensitivity class NSCLC NCI-H460 CL1021,"[1]; cell line NSCLC NCI-H460, CL1021",3
same,sensitivity class NSCLC NCI-H522 CL1003,"[1]; cell line NSCLC NCI-H522, CL1003",2
same,sensitivity class Ovarian IGROV1 CL6010,"[1]; cell line Ovarian IGROV1, CL6010",1
same,sensitivity class Ovarian OVCAR-3 CL6001,"[1]; cell line Ovarian OVCAR-3, CL6001",1
same,sensitivity class Ovarian OVCAR-4 CL6002,"[1]; cell line Ovarian OVCAR-4, CL6002",1
same,sensitivity class Ovarian OVCAR-5 CL6003,"[1]; cell line Ovarian OVCAR-5, CL6003",1
same,sensitivity class Ovarian OVCAR-8 CL6005,"[1]; cell line Ovarian OVCAR-8, CL6005",2
same,sensitivity class Ovarian SK-OV-3 CL6011,"[1]; cell line Ovarian SK-OV-3, CL6011",2
same,sensitivity class Prostate DU-145 CL11003,"[1]; cell line Prostate DU-145, CL11003",3
same,sensitivity class Prostate PC-3(I) CL11001,"[1]; cell line Prostate PC-3(I), CL11001",3
same,sensitivity class Renal 786-O CL9018,"[1]; cell line Renal 786-O, CL9018",2
same,sensitivity class Renal A498 CL9013,"[1]; cell line Renal A498, CL9013",2
same,sensitivity class Renal ACHN CL9023,"[1]; cell line Renal ACHN, CL9023",3
same,sensitivity class Renal CAKI-1 CL9015,"[1]; cell line Renal CAKI-1, CL9015",2
same,sensitivity class Renal RXF-393 CL9016,"[1]; cell line Renal RXF-393, CL9016",2
same,sensitivity class Renal SN12C CL9008,"[1]; cell line Renal SN12C, CL9008",2
same,sensitivity class Renal TK10 CL9024,"[1]; cell line Renal TK10, CL9024",2
same,sensitivity class Renal UO-31 CL9004,"[1]; cell line Renal UO-31, CL9004",1
same,-Log (GI50),[2]; Breast BT-549 (CL5013),5.6
same,-Log (GI50),[2]; Breast HS-578T CL5006,6.1
same,-Log (GI50),[2]; Breast MCF7(I) (CL5001),5.4
same,-Log (GI50),[2]; Breast MCF7/ADRr (CL5002),3.9
same,-Log (GI50),[2]; Breast MDA-MB-231 CL5005,5.8
same,-Log (GI50),[2]; Breast MDA-MB-435 (CL5011),4.5
same,-Log (GI50),[2]; Breast MDA-N CL5012,6.0
same,-Log (GI50),[2]; Breast T-47D (CL5014),6.0
same,-Log (GI50),[2]; CNS SF-268 CL12014,4.8
same,-Log (GI50),[2]; CNS SF-295 CL12015,5.0
same,-Log (GI50),[2]; CNS SF-539 CL12016,5.2
same,-Log (GI50),[2]; CNS SNB-19 (CL12002),4.8
same,-Log (GI50),[2]; CNS SNB-75(I) CL12005,4.8
same,-Log (GI50),[2]; CNS U251(I) CL12009,5.2
same,-Log (GI50),[2]; Colon COLO-250 CL4010,4.2
same,-Log (GI50),[2]; Colon HCC-2998 (CL4002),4.7
same,-Log (GI50),[2]; Colon HCT-15 CL4015,4.5
same,-Log (GI50),[2]; Colon HCT-116 (CL4003),4.6
same,-Log (GI50),[2]; Colon HT29(I) CL4001,4.2
same,-Log (GI50),[2]; Colon KM12 (CL4017),4.5
same,-Log (GI50),[2]; Colon SW-620 (CL4009),4.9
same,-Log (GI50),[2]; Leukemia CCRF-CEM(I) (CL7003),5.6
same,-Log (GI50),[2]; Leukemia HL-60(I) (CL7008),5.7
same,-Log (GI50),[2]; Leukemia K562(I) CL7005,4.6
same,-Log (GI50),[2]; Leukemia MOLT-4 (CL7006),6.0
same,-Log (GI50),[2]; Leukemia RPMI-8226(I) (CL7010),5.4
same,-Log (GI50),[2]; Leukemia SR CL7019,6.7
same,-Log (GI50),[2]; Melanoma LOX IMVI CL10001,5.3
same,-Log (GI50),[2]; Melanoma M14 (CL10014),6.1
same,-Log (GI50),[2]; Melanoma MALME-3M CL10002,4.7
same,-Log (GI50),[2]; NCSLC NCI-H522 CL1003,5.1
same,-Log (GI50),[2]; NSCLC NCI-H23(I) CL1001,5.1
same,-Log (GI50),[2]; NSCLC NCI-H332M CL1017,3.8
same,-Log (GI50),[2]; NSCLC NCI-H460 CL1021,6.0
same,-Log (GI50),[2]; Ovarian IGROV1 CL6010,4.2
same,-Log (GI50),[2]; Ovarian OVCAR-3 CL6001,4.2
same,-Log (GI50),[2]; Ovarian OVCAR-4 CL6002,3.8
same,-Log (GI50),[2]; Ovarian OVCAR-5 CL6003,4.3
same,-Log (GI50),[2]; Ovarian OVCAR-8 CL6005,4.8
same,-Log (GI50),[2]; Ovarian SK-OV-3 CL6011,4.5
same,-Log (GI50),[2]; Prostate DU-145 CL11003,6.1
same,-Log (GI50),[2]; Prostate PC-3(I) CL11001,6.2
same,-Log (GI50),[2]; Renal 786-O CL9018,5.9
same,-Log (GI50),[2]; Renal A498 CL9013,4.7
same,-Log (GI50),[2]; Renal ACHN CL9023,6.1
same,-Log (GI50),[2]; Renal CAKI-1 CL9015,5.2
same,-Log (GI50),[2]; Renal RXF-393 CL9016,4.8
same,-Log (GI50),[2]; Renal SN12C CL9008,5.0
same,-Log (GI50),[2]; Renal TK10 CL9024,5.3
same,-Log (GI50),[2]; Renal UO-31 CL9004,4.1
